# Measurements from patent US8906852B2 (MethylGene Inc., priority 2010, dated 2014).
# Target: T1, VEGFR/KDR (Homo sapiens, UniProt P35968)
# T1 construct: made in house; host or cells: Sf9 cells (Spodoptera frugiperda), baculovirus
# Assay: VEGFR/KDR kinase inhibition, DELFIA assay
# Format: biochemical
# Details: ATP 0.6 uM (2x Km), enzyme 5 nM
# Protocol: Inhibition of VEGFR/KDR is measured in a DELFIA™ assay (Perkin Elmer). The substrate poly(Glu4, Tyr) is immobilized onto black high-binding polystyrene 96-well plates. The coated plates are washed and stored at 4° C. During the assay, the enzyme is pre-incubated with inhibitor and Mg-ATP on ice in polypropylene 96-well plates for 4 minutes, and then transferred to the coated plates. The subsequent kinase reaction takes place at 30° C. for 10-30 minutes. ATP concentrations in the assay are 0.6 uM for VEGFR/KDR (2× the Km). Enzyme concentration is 5 nM. After incubation, the kinase reactions are quenched with EDTA and the plates are washed. Phosphorylated product is detected by incubation with Europium-labeled anti-phosphotyrosine MoAb. After washing the plates, bound MoAb is detected by time-resolved fluorescence in a Gemini SpectraMax reader (Molecular Devices). Compounds are evaluated over a range of concentrations, and IC50 values (concentration of compounds giving 50% inhibition of enzymatic activity) are determined.
# T1 sequence (P35968 806-1356): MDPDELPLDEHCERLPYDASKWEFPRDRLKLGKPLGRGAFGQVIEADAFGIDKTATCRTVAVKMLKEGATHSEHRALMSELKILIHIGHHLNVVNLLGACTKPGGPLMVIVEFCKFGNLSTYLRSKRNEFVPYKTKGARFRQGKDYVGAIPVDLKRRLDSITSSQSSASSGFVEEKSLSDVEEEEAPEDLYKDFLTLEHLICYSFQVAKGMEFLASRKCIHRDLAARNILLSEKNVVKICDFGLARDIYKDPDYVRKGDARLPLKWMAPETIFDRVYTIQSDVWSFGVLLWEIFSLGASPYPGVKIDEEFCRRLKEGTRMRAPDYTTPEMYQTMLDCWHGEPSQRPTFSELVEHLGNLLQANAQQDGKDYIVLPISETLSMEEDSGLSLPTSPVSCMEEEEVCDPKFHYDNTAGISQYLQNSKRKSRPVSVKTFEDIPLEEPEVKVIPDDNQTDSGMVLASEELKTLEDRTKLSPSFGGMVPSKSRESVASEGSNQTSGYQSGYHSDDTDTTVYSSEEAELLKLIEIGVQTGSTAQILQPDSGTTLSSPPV
row,Molecule,IC50 [nM]
1,"1-(2-(6-(7-(2-fluoro-4-nitrophenoxy)thieno[3,2-b]pyridin-2-yl)pyridin-3-yl)ethyl)pyrrolidin-2-one [Compound 293]",< 50
2,"O=C(Nc1ccc(Oc2ccnc3cc(-c4ccc(CN5CC(O)CC5=O)cn4)sc23)c(F)c1)NC1CC1 (racemic) [Compound 111, (±)-1-cyclopropyl-3-(3-fluoro-4-(2-(5-((4-hydroxy-2-oxopyrrolidin-1-yl)methyl)pyridin-2-yl)thieno[3,2-b]pyridin-7-yloxy)phenyl)urea]",< 50
3,"CN(C[C@@H](O)[C@H](O)[C@@H](O)[C@@H](O)CO)C(=O)c1ccc(-c2cc3nccc(Oc4ccc(NC(=O)NC5CC5)cc4F)c3s2)nc1 (stereo in doubt) [Compound 244, 6-(7-(4-(3-cyclopropylureido)-2-fluorophenoxy)thieno[3,2-b]pyridin-2-yl)-N-methyl-N-((2R,3S,4S,5S)-2,3,4,5,6-pentahydroxyhexyl)nicotinamide]",< 50
4,CN(C(=O)OC(C)(C)C)C1CCN(Cc2ccc(-c3cc4nccc(Oc5ccc(NC(=O)NC6CC6)cc5F)c4s3)nc2)CC1 [342-A],< 50
5,"COCCN(Cc1ccc(-c2cc3nccc(Oc4ccc(NC(=O)NC5CC5)cc4F)c3s2)nc1)C(=O)N(C)C [Compound 4, N-[3-((6-(7-(4-(3-cyclopropylureido)-2-fluorophenoxy)thieno[3,2-b]pyridin-2-yl)pyridin-3-yl)methyl)]-N-(1,1-dimethyl)-N-[3-(2-methoxyethyl)]urea]",< 50
6,"COCCN(Cc1ccc(-c2cc3nccc(Oc4ccc(NC(=O)NC5CC5)cc4F)c3s2)nc1)CC(F)(F)F [Compound 8, 1-cyclopropyl-3-(3-fluoro-4-(2-(5-(((2-methoxyethyl)(2,2,2-trifluoroethyl)amino)-methyl)pyridin-2-yl)thieno [3,2-b]pyridin-7-yloxy)phenyl)urea]",50 to 100
7,"CC(=O)N(CCO)Cc1ccc(-c2cc3nccc(Oc4ccc(NC(=O)NC5CC5)cc4F)c3s2)nc1 [Compound 10, N-((6-(7-(4-(3-cyclopropylureido)-2-fluorophenoxy)thieno[3,2-b]pyridin-2-yl)pyridin-3-yl)methyl)-N-(2-hydroxyethyl)acetamide]",< 50
8,"COCCNCc1ccc(-c2cc3nccc(Oc4ccc(NC(=O)CC5CC5)cc4F)c3s2)nc1 [Compound 13, 2-cyclopropyl-N-(3-fluoro-4-(2-(5-((2-methoxyethylamino)methyl)pyridin-2-yl)-thieno[3,2-b]pyridin-7-yloxy)phenyl)acetamide]",50 to 100
9,"CCOC(Nc1ccc(Oc2ccnc3cc(-c4ccc(CNCCOC)cn4)sc23)c(F)c1)C(F)(F)F (centres unmarked) [Compound 14, N-(1-ethoxy-2,2,2-trifluoroethyl)-3-fluoro-4-(2-(5-((2-methoxyethylamino)-methyl)pyridin-2-yl)thieno[3,2-b]pyridin-7-yloxy)aniline]",≥ 250
10,"COCCNCc1ccc(-c2cc3nccc(Oc4ccc(NC(CC(=O)Nc5ccccc5)C(F)(F)F)cc4F)c3s2)nc1 (centres unmarked) [Compound 19, 4,4,4-trifluoro-3-(3-fluoro-4-(2-(5-((2-methoxyethylamino)methyl)pyridin-2-yl)thieno[3,2-b]pyridin-7-yloxy)phenylamino)-N-phenylbutanamide]",< 50
11,"COCCNCc1ccc(-c2cc3nccc(Oc4ccc(NC(CC(=O)Nc5ccc(F)cc5)C(F)(F)F)cc4F)c3s2)nc1 (centres unmarked) [Compound 20, 4,4,4-trifluoro-3-(3-fluoro-4-(2-(5-((2-methoxyethylamino)methy)pyridin-2-yl)thieno[3,2-b]pyridin-7-yloxy)phenylamino)-N-(4-fluorophenyl)butanamide]",< 50
12,"COCCNCc1ccc(-c2cc3nccc(Oc4ccc(NC(CC(=O)N(C)c5ccccc5)C(F)(F)F)cc4F)c3s2)nc1 (centres unmarked) [Compound 21, 4,4,4-trifluoro-3-(3-fluoro-4-(2-(5-((2-methoxyethylamino)methyl)pyridin-2-yl)thieno[3,2-b]pyridin-7-yloxy)phenylamino)-N-methyl-N-phenylbutanamide]",< 50
13,"COCCNCc1ccc(-c2cc3nccc(Oc4ccc(NC(=O)NC5CC5)nc4)c3s2)nc1 [Compound 29, 1-cyclopropyl-3-(5-(2-(5-((2-methoxyethylamino)methyl)pyridin-2-yl)thieno[3,2-b]-pyridin-7-yloxy)pyridin-2-yl)urea]",100 to 250
14,"COCCN(Cc1ccc(-c2cc3nccc(Oc4ccc(NC(=O)NC5CC5)nc4)c3s2)nc1)C(=O)CO [Compound 31, N-((6-(7-(6-(3-cyclopropylureido)pyridin-3-yloxy)thieno[3,2-b]pyridin-2-yl)pyridin-3-yl)methyl)-2-hydroxy-N-(2-methoxyethyl)acetamide]",100 to 250
15,"COCCN(Cc1ccc(-c2cc3nccc(Oc4ccc(NC(=O)NC5CC5)cc4F)c3s2)nc1)C(=O)COP(=O)(O)O [Compound 34, 2-(((6-(7-(4-(3-cyclopropylureido)-2-fluorophenoxy)thieno[3,2-b]pyridin-2-yl)pyridin-3-yl)methyl)(2-methoxyethyl)amino)-2-oxoethyl dihydrogen phosphate]",< 50
16,"CCNC(=O)N(CCOC)Cc1ccc(-c2cc3nccc(Oc4ccc(NC(=O)NC5CC5)c(F)c4F)c3s2)nc1 [Compound 35, N-[3-((6-(7-(4-(3-cyclopropylureido)-2,3-difluorophenoxy)thieno[3,2-b]pyridin-2-yl)pyridin-3-yl)methyl)]-N-(1-ethyl)-N-(2-methoxyethyl)urea]",< 50
17,"CCNC(=O)N(CCOC)Cc1ccc(-c2cc3nccc(Oc4ccc(NC(=O)NC5CC5)nc4)c3s2)nc1 [Compound 37, N-[3((6-(7-(6-(3-cyclopropylureido)-pyridin-3-yloxy)thieno[3,2-b]-pyridin-2-yl)pyridin-3-yl)methyl)]-N-(1-ethyl)-N-[3-(2-methoxyethyl)]urea]",100 to 250
18,"CCNC(=O)N(CCOC)CCc1ccc(-c2cc3nccc(Oc4ccc(NC(=O)NC5CC5)cc4F)c3s2)nc1 [Compound 38, N-[3-(2-(6-(7-(4-(3-cyclopropylureido)-2-fluorophenoxy)-thieno[3,2-b]-pyridin-2-yl)pyridin-3-yl)ethyl)]-N-(1-ethyl)-N-[3-(2-methoxyethyl)]urea]",< 50
19,COCCN(Cc1ccc(-c2cc3nccc(Oc4ccc(NC(CC(=O)Nc5ccc(F)cc5)C(F)(F)F)cc4F)c3s2)nc1)C(C)=O (centres unmarked) [Compound 39],< 50
20,"COCCN(Cc1ccc(-c2cc3nccc(Oc4ccc(NC(=O)NC5CC5)nc4)c3s2)nc1)C(C)=O [Compound 40, N-((6-(7-(6-(3-cyclopropylureido)-pyridin-3-yloxy)thieno[3,2-b]-pyridirin-2-yl)pyridin-3-yl)methyl)-N-(2-methoxyethyl)-acetamide]",50 to 100
21,"COCCN(Cc1ccc(-c2cc3nccc(Oc4ccc(NC(=O)CC5CC5)cc4F)c3s2)nc1)C(C)=O [Compound 42, 2-cyclopropyl-N-(3-fluoro-4-(2-(5-((N-(2-methoxyethyl)-acetamido)methyl)pyridin-2-yl)thieno[3,2-b]-pyridin-7-yloxy)phenyl)-acetamide]",50 to 100
22,"CC(=O)N[C@H]1CCN(Cc2ccc(-c3cc4nccc(Oc5ccc(NC(=O)NC6CC6)cc5F)c4s3)nc2)C1=O [Compound 44, (S)-N-(l-((6-(7-(4-(3-cyclopropylureido)-2-fluorophenoxy)thieno[3,2-b]pyridin-2-yl)pyridin-3-yl)methyl)-2-oxopyrrolidin-3-yl)acetamide]",< 50
23,"COCCN(CCc1ccc(-c2cc3nccc(Oc4ccc(NC(=O)NC5CC5)cc4F)c3s2)nc1)C(=O)CO [Compound 46, N-(2-(6-(7-(4-(3-cyclopropylureido)-2-fluorophenoxy)thieno[3,2-b]pyridin-2-yl)pyridin-3-yl)ethyl)-2-hydroxy-N-(2-methoxyethyl)-acetamide]",< 50
24,"CC(C)(C)OC(=O)N1CCN(Cc2ccc(-c3cc4nccc(Oc5ccc(NC(=O)NC6CC6)cc5F)c4s3)nc2)CC1 [Compound 48, tert-butyl 4-((6-(7-(4-(3-cyclopropylureido)-2-fluorophenoxy)thieno[3,2-b]-pyridin-2-yl)pyridin-3-yl)methyl)piperazine-1-carboxylate]",< 50
25,"COCCN(CCOC)Cc1ccc(-c2cc3nccc(Oc4ccc(NC(=O)NC5CC5)cc4F)c3s2)nc1 [Compound 50, 1-(4-(2-(5-((bis(2-methoxyethyl)amino)methyl)pyridin-2-yl)thieno[3,2-b]-pyridin-7-yloxy)-3-fluorophenyl)-3-cyclopropylurea]",< 50
26,CN(CCO)Cc1ccc(-c2cc3nccc(Oc4ccc(NC(=O)NC5CC5)cc4F)c3s2)nc1 [Compound 50-A],< 50
27,"O=C(Nc1ccc(Oc2ccnc3cc(-c4ccc(CN5CC[C@H](O)C5)cn4)sc23)c(F)c1)NC1CC1 [Compound 52, (S)-1-cyclopropyl-3-(3-fluoro-4-(2-(5-((3-hydroxypyrrolidin-1-yl)methyl)pyridin-2-yl)thieno[3,2-b]-pyridin-7-yloxy)phenyl)urea]",< 50
28,"O=C(Nc1ccc(Oc2ccnc3cc(-c4ccc(CN5CC[C@@H](O)C5)cn4)sc23)c(F)c1)NC1CC1 [Compound 53, (R)-1-cyclopropyl-3-(3-fluoro-4-(2-(5-((3-hydroxypyrrolidin-1-yl)methyl)pyridin-2-yl)thieno[3,2-b]-pyridin-7-yloxy)phenyl)urea]",< 50
29,"CN(C)[C@H]1CCN(Cc2ccc(-c3cc4nccc(Oc5ccc(NC(=O)NC6CC6)cc5F)c4s3)nc2)C1 [Compound 54, (S)-1-cyclopropyl-3-(4-(2-(5-((3-(dimethylamino)pyrrolidin-1-yl)methyl)pyridin-2-yl)thieno[3,2-b]pyridin-7-yloxy)-3-fluorophenyl)urea]",< 50
